The record followed here is patent US6849732B2, “Metalloproteinase inhibitors, pharmaceutical compositions containing them and their pharmaceutical uses, and methods and intermediates useful for their preparation” (Agouron Pharmaceuticals, Inc., priority 1995, dated 2005).

SMILES strings stand for the structures. Where a name gives a salt, the structure may show the parent alone.

Holding throughout (type): biochemical
For one experiment, the target named is Coll3 (Homo sapiens, UniProt P45452). In words: MCA fluorogenic enzyme assay, competitive inhibition analysis (Ki,app), Coll3. The following applies: MCA peptide substrate, 37° C., pH 7.5, read-out: Enzyme Inhibition Constants (K1) Coll3.
The target in another experiment is T1, gelatinase A (HG72kD) (Homo sapiens, UniProt P08253).
T1 sequence (P08253 110-660): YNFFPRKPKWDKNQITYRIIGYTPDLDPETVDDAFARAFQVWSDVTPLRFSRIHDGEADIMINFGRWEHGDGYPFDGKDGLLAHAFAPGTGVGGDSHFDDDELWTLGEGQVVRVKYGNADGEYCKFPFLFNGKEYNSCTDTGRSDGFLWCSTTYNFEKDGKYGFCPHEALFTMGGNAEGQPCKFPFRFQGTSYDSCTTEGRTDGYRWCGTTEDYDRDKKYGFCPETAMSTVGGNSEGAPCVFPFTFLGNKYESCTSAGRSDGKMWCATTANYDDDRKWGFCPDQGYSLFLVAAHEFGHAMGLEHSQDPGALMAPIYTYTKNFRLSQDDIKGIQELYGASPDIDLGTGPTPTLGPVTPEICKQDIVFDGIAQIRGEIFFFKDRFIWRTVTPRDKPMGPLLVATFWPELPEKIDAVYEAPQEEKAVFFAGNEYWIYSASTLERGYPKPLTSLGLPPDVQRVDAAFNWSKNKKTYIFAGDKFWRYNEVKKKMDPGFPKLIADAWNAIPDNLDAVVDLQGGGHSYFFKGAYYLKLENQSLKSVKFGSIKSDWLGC
In words: MCA fluorogenic enzyme assay, competitive inhibition analysis (Ki,app), gelatinase A. The following applies: MCA peptide substrate, 37° C., pH 7.5, read-out: Enzyme Inhibition Constants (K1) HG72kD.

The next experiment concerns the target T2, HFC (Homo sapiens, UniProt P03956).
T2 sequence (P03956 100-469): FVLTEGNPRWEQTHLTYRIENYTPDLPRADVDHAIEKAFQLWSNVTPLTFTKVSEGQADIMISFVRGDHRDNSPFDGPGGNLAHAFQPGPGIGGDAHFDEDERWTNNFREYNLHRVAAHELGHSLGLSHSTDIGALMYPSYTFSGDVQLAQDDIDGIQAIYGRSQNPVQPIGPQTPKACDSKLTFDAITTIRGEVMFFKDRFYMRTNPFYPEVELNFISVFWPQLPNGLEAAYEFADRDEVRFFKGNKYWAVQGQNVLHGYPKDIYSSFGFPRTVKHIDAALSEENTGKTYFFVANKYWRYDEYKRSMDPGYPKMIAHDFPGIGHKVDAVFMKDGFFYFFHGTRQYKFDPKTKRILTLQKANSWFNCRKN
In words: MCA fluorogenic enzyme assay, competitive inhibition analysis (Ki,app), HFC. The following applies: MCA peptide substrate, 37° C., pH 7.5, read-out: Enzyme Inhibition Constants (K1) HFC.

In the next experiment the target is stromelysin (HSLN) (Homo sapiens, UniProt P08254). In words: MCA fluorogenic enzyme assay, competitive inhibition analysis (Ki,app), stromelysin. The conditions noted are these: Ki,app; MCA peptide substrate, 37° C., pH 7.5; read-out: Enzyme Inhibition Constants (K1) HSLN.
stromelysin (HSLN), sequence (P08254 100-477): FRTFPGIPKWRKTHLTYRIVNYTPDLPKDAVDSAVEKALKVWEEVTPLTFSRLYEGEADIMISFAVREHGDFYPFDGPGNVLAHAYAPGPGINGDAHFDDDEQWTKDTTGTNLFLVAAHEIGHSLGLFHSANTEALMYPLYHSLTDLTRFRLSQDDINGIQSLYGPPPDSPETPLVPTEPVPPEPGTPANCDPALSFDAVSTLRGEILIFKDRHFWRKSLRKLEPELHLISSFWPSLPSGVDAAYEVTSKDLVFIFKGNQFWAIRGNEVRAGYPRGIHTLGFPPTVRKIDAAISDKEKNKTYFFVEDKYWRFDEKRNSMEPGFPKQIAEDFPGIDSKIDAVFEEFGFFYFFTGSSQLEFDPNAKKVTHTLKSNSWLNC
A further experiment has as its target T3, matrilysin (Matr.) (Homo sapiens, UniProt P09237).
T3 sequence (P09237 95-267): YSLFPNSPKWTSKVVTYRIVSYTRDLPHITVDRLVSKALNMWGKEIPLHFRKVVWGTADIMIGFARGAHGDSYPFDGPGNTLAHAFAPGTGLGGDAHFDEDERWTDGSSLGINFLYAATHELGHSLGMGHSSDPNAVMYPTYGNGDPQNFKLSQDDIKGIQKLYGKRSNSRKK
In words: MCA fluorogenic enzyme assay, competitive inhibition analysis (Ki,app), matrilysin. The conditions noted are these: MCA peptide substrate, 37° C., pH 7.5, read-out: Enzyme Inhibition Constants (K1) Matr. On the procedure: Stromelysin enzymatic activity was measured using a modified version of a resonance energy transfer fluorogenic assay as described in FEBS, vol. 296(3), p. 263 (1992), the disclosure of which is incorporated herein by reference. The MCA-peptide substrate is shown below. The fluorescent MCA group is quenched by resonance energy transfer to the 2,4-dinitrophenyl group. Matrix metalloproteinases cleave this substrate at the Gly-Leu bond. Cleavage results in the loss of energy transfer and a large increase in fluorescence of the MCA group. [drawing 56] 7-methoxycoumarin-4-yl-acetyl-pro-leu-gly-leu-3-(2,4-dinitrophenyl)-L-2,3-diaminoproprionyl-ala-arg-NH2
The MCA assay was performed at 37° C. in buffer containing 50 mM Tricine (pH 7.5), 10 mM CaCl2, 200 mM NaCl, and 1% DMSO with the following concentrations of matrix metalloproteinases: 1.4 nM stromelyin, 0.063 nM matrilysin, and 0.030 nM gelatinase A. The concentration of MCA substrate was 10 or 20 μM in a final volume of 1.6 mL. Fluorescence data was collected with Perkin-Elmer LS-5B and LS-5B spectrofluorimeters with λexcitation=328 nm and λemission=393 nm. Spectrofluorimeters were interfaced with IBM-compatible microcomputer systems.
The Km for the MCA peptide substrate with the matrix metalloproteinases is quite high and exceeds its solubility under assay conditions. Consequently, the apparent Ki (Ki,app) was determined to describe the strength of inhibition. However, in this case, Ki,app would be essentially equal to Ki since [S]<<Km. For the determination of Ki,app, the concentration of the inhibitor was varied at a constant and low concentration of substrate and the steady-state rates of fluorescence change determined. In most cases absorptive quench due to the presence of ligand was not observed. For slow-binding inhibitors, onset of inhibition curves were collected for at least 45 minutes so that equilibrium was established. Steady-state rates of fluorescence change were obtained by fitting a curve to an equation for a single exponential decay containing a linear phase. The fitted value of the linear phase was taken as the steady-state rate. The steady-state rates were fitted to the Michaelis equation describing competitive inhibition by non-linear methods. Data resulting from tight-binding inhibition was analyzed, and Ki,app determined by fitting the data to the tight-binding equation of Morrison See (Biochem. Biophys. Acta, vol. 185, pp. 269-286 (1969)) by non-linear methods.

As for `CC1(C)[C@H](C(=O)NO)N(S(=O)(=O)c2ccc(Oc3ccncc3)cc2)CC[S@+]1[O-]` [Example 19(a), 1(S), 3(S) isomer, 1(S), 3(S)-N-hydroxy-4-(4-((pyrid-4-yl)oxy)benzenesulfonyl)-2,2-dimethyl-1-oxotetrahydro-2H-1,4-thiazine-3-carboxamide], the Ki at Coll3 stood at 0.16 nM; on gelatinase A (HG72kD) it was 0.49 nM; on HFC it was 31 nM; on stromelysin (HSLN), 2.3 nM.
Regarding `O=C(NO)[C@H]1CNCCN1S(=O)(=O)c1ccc(Oc2ccc(F)cc2)cc1` [Example 10(b), 2(R)-N-hydroxy-1-(4-(4-fluorophenoxy)benzenesulfonyl)-piperazine-2-carboxamide hydrochloride], the Ki at matrilysin (Matr.) amounted to 365 nM; at Coll3, 0.257 nM; at gelatinase A (HG72kD), 0.232 nM; on HFC, 44 nM; on stromelysin (HSLN), 0.98 nM.
Turning to `CC(=O)N1CCCN(S(=O)(=O)c2ccc(Oc3ccc(F)cc3)cc2)C1C(=O)NO` (racemic) [Example 22, 2(R/S)-3-acetyl-1-4-(4-fluorophenoxy)benzenesulfonyl-N-hydroxy-hexahydropyrimidine-2-carboxamide], the Ki on Coll3 amounted to 0.088 nM; on gelatinase A (HG72kD), 0.077 nM; at stromelysin (HSLN), 4.4 nM.
As for `CCOC(=O)CN1CCN(S(=O)(=O)c2ccc(Oc3ccc(Cl)cc3)cc2)[C@@H](C(=O)NO)C1` [Example 11(c), 2(R)-N-hydroxy-1-(4-(4-chlorophenoxy)benzenesulfonyl)-4-(ethoxycarbonylmethyl)-piperazine-2-carboxamide hydrochloride], the figures for the Ki at matrilysin (Matr.), at HFC and at stromelysin (HSLN) were 240 nM, 48 nM and 0.25 nM, respectively.
Consider `CC1(C)SCCN(S(=O)(=O)c2ccc(Oc3ccc(Br)cc3)cc2)[C@H]1C(=O)NO` [Example 16(a), 3(S)-N-hydroxy-4-(4-(4-bromophenoxy)benzenesulfonyl)-2,2-dimethyl-tetrahydro-2H-1,4-thiazine-3-carboxamide], for which the Ki at matrilysin (Matr.) amounted to 2.8 nM; on Coll3, 0.001 nM; on gelatinase A (HG72kD), 0.003 nM; on HFC it was 0.56 nM; on stromelysin (HSLN) it was 0.017 nM.
As to `CC1(C)[C@H](C(=O)NO)N(S(=O)(=O)c2ccc(Oc3ccncc3)cc2)CC[S@@+]1[O-]` (single isomer, unassigned; isomer 1) [Example 19(a), 1(R), 3(S) isomer], the Ki on Coll3 turned out to be 0.13 nM; at gelatinase A (HG72kD), 0.094 nM; at HFC it was 32 nM; on stromelysin (HSLN) it was 1.4 nM.
The matching figures for `CC1(C)NC(=O)CN(S(=O)(=O)c2ccc(Oc3ccc(F)cc3)cc2)C1C(=O)NO` (racemic) [Example 21, 2(R/S)-1-[4-(4-fluorophenoxy)benzenesulfonyl]-3,3-dimethyl-N-hydroxy-5-oxo-piperazine-2-carboxamide]: 0.068 nM, 0.066 nM, 5.9 nM and 0.84 nM.
For `O=C(NO)C1CSCCN1S(=O)(=O)c1ccc(Oc2ccccc2)cc1` (racemic) [Example 13(b), 3(R/S)-N-hydroxy-4-(4-phenoxybenzenesulfonyl)-tetrahydro-2H-1,4-thiazine-3-carboxamide], the Ki at matrilysin (Matr.) came out at 201 nM; on Coll3 it was 0.029 nM; at gelatinase A (HG72kD) it was 0.025 nM; on stromelysin (HSLN) it was 0.647 nM.
The corresponding values for `CN1CCN(S(=O)(=O)c2ccc(Oc3ccccc3)cc2)[C@@H](C(=O)NO)C1` [Example 11(b), 2(R)-N-hydroxy-1-(4-phenoxybenzenesulfonyl)-4-methyl-piperazine-2-carboxamide] are 2180 nM, 0.158 nM, 0.101 nM and 6.3 nM.
Consider `O=C1C[C@H](C(=O)NO)N(S(=O)(=O)c2ccc(Oc3ccc(F)cc3)cc2)CN1` [Example 15(b), 6(R)-(N-hydroxycarbamoyl)-1-(4-(4-fluorophenoxy)benzene-sulfonyl)-tetrahydropyrimidin-4-one], for which the Ki at matrilysin (Matr.) was 1840 nM; at gelatinase A (HG72kD) it was 0.152 nM; at HFC, 187 nM; at stromelysin (HSLN), 5.1 nM.
The corresponding values for `CC(C)(C)OC(=O)N1CCN(S(=O)(=O)c2ccc(Oc3ccc(F)cc3)cc2)[C@@H](C(=O)NO)C1` [Example 9(b), 2(R)-N-hydroxy-1-(4-(4-fluorophenoxy)benzenesulfonyl)-4-(t-butoxycarbonyl)-piperazine-2-carboxamide] are 220 nM, 0.026 nM, 18 nM and 0.49 nM.
Turning to `O=C(NO)C1CSCCN1S(=O)(=O)c1ccc(Oc2ccc(Br)cc2)cc1` (racemic) [Example 13(a), 3(R/S)-N-hydroxy4-(4-bromophenoxybenzenesulfonyl)-tetrahydro-2H-1,4-thiazine-3-carboxamide], the results for the Ki on matrilysin (Matr.), at gelatinase A (HG72kD) and on stromelysin (HSLN) were 169 nM, 0.04 nM and 0.333 nM, respectively.
Turning to `COc1ccc(Oc2ccc(S(=O)(=O)N3CCN(S(C)(=O)=O)CC3C(=O)NO)cc2)cc1` (racemic) [Example 12(c)], the Ki at matrilysin (Matr.) came to 74 nM; at HFC, 16 nM; at stromelysin (HSLN), 0.19 nM.
With `CNC(=O)N1CCN(S(=O)(=O)c2ccc(Oc3ccc(Cl)cc3)cc2)C(C(=O)NO)C1` (racemic) [Example 6(a), 2(R/S)-N-hydroxy-1-(4-(4-chlorophenoxy)benzenesulfonyl)-4-(N-methylcarbamoyl)-piperazine-2-carboxamide], the Ki turned out to be 109 nM on matrilysin (Matr.), 0.016 nM at Coll3, 0.034 nM at gelatinase A (HG72kD) and 0.406 nM on stromelysin (HSLN).
`CC1(C)SCCN(S(=O)(=O)c2ccc(Oc3ccc(Cl)cc3)cc2)[C@H]1C(=O)NO` [Example 3(b), 3(S)-N-hydroxy4-(4-(4-chlorophenoxy)benzenesulfonyl)-2,2-dimethyl-tetrahydro-2H-1,4-thiazine-3-carboxamide]: the Ki on Coll3 stood at 0.001 nM; at gelatinase A (HG72kD) it was 0.017 nM; on HFC, 1.3 nM; at stromelysin (HSLN) it was 0.059 nM.
